Experimental findings from US20260306632A1, “NANOPARTICLES FOR PHOTOIMMUNE THERAPY COMPRISING PHOTOSENSITIZER AND ADJUVANT, AND USAGE THEREOF” (KOREA INSTITUTE OF SCIENCE AND TECHNOLOGY, priority 2022, published 2026) are described below.

Like-named read-outs stand apart in the source and are kept apart here. Bounds are passed on as bounds.

This data set is described as follows: Solubility of free imiquimod and imiquimod-oleic acid complex (ImO) in water. Type of data set: physicochemical. The settings on record: for solubility: highest/lowest concentration examined. Here is the method:
Nanoparticles (ImiMB) were synthesized using a methylene blue-oleic acid complex (MBO) and Pluronic F-127 with imiquimod in a free imiquimod state without modifying imiquimod with oleic acid. […] Subsequently, 1 ml of distilled water (DW) was used instead of ImO complex solution in the rehydration step of the thin film (FIG. 2).
Therefore, in the present invention, imiquimod was modified with an organic acid to form a cationic adjuvant-organic acid complex for solubility improvement and high-content loading, and then nanoparticles were prepared using the cationic adjuvant-organic acid complex.

For `CC(C)Cn1cnc2c(N)nc3ccccc3c21` [free imiquimod, imiquimod], the “solubility in water (in words)” value is listed as “not soluble in water”. Further, the solubility (read-out: solubility) was below 100 µg/mL.

Take imiquimod-oleic acid complex: the “solubility in water (in words)” value is listed as “particle formation occurred well even at a high concentration of 5.0 mg/ml, maintaining a transparent solution form” and the solubility is at least 5000 µg/mL.
